The values that follow come from patent US10858359B2, “Heterocyclic ring derivatives useful as SHP2 inhibitors” (priority 2016, dated 2020).

The test system of one assay is KYSE-520 cells. In words: Cell proliferation assay (MTS/PMS). It is filed as cell-based. As to conditions: Homo sapiens, 192 h, 1500 cells/well, RPMI-1640 3% FBS, read at day 8. As to the method:
For drug treatment, compounds of the invention at various concentrations were added 24 hours after cell plating. At day 8, 50 μL MTS/PMS reagents (Promega/Sigma) were added, and the absorbance value was determined according to the supplier's instruction (Promega).

Assay [1] has as its target T1, SHP2 (Homo sapiens (Human), UniProt Q06124). The assay is described as follows: Phosphatase assay (single dose inhibition), DiFMUP substrate. It counts as biochemical. The conditions noted are these: compound at 0.1 μM (100 nM); SHP2 0.5 nM activated with dPEG8 peptide; DiFMUP 12 μM; relative to DMSO control. As to the method:
DMSO [0.5% (v/v)] or compounds (100 nM) were added to the mixture and incubated for 30 min at room temperature. […] The experiment is carried out in triplicate. The value for the control sample (DMSO) was set to 100%, and the values for the compound-treated samples were expressed as activity relative to the control sample.

The target in assay [2] is T1, SHP2. The assay is described as follows: Phosphatase assay (IC50), DiFMUP substrate. It counts as biochemical. As to conditions: SHP2 0.5 nM activated with dPEG8 peptide; DiFMUP 12 μM; compounds 0.3 nM to 1 μM. The method, then:
DMSO [0.5% (v/v)] or compounds (concentrations ranging from 0.3 nM to 1 μM) were added to the mixture and incubated for 30 min at room temperature.

Counter-ions that a name gives are not always drawn.

T1 sequence (Q06124 whole entry): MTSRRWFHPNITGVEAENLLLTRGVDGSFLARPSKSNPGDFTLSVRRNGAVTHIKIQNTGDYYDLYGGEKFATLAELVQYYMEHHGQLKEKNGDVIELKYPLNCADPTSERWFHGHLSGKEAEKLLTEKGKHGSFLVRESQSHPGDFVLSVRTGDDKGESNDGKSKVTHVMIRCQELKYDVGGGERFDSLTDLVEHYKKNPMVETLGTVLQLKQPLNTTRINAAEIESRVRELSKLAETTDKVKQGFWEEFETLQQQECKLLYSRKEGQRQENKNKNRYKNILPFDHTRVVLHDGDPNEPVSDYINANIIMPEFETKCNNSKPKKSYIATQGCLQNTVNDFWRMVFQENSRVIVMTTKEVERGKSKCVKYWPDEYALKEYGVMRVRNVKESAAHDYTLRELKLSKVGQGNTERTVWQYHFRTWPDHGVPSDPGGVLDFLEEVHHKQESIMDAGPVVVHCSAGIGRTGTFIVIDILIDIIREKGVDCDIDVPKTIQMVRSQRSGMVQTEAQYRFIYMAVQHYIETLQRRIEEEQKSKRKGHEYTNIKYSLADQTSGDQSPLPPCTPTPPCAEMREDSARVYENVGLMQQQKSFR

As to `CN(C)C(=O)C(=O)Nc1cccc(Sc2ncc(N3CCC4(CC3)COC[C@H]4N)nc2N)c1Cl` [Example 1, (S)-N1-(3-((3-amino-5-(4-amino-2-oxa-8-azaspiro[4.5]decan-8-yl)pyrazin-2-yl)thio)-2-chlorophenyl)-N2,N2-dimethyloxalamide hydrochloride], the IC50 (as a rule, the concentration that gives 50% inhibition) in the assay with KYSE-520 cells came out at 15.9 µM. As to `CN(C)C(=O)C(=O)c1ccc(C(=O)Nc2cccc(Sc3ncc(N4CCC(C)(N)CC4)nc3N)c2Cl)cc1` [Example 3, N-(3-((3-amino-5-(4-amino-4-methylpiperidin-1-yl)pyrazin-2-yl)thio)-2-chlorophenyl)-4-(2-(dimethylamino)-2-oxoacetyl)benzamide], the inhibition (usually the percentage by which the read-out fell short of the control) at 0.1 µM against SHP2 [1] amounted to 60%.

Consider `Nc1nc(N2CCC3(CC2)COC[C@H]3N)cnc1Sc1cccc2c1C(F)(F)C(=O)N2` [Example 8, (S)-4-((3-amino-5-(4-amino-2-oxa-8-azaspiro[4.5]decan-8-yl)pyrazin-2-yl)thio)-3,3-difluoroindolin-2-one], for which, at SHP2 [1], the inhibition at 0.1 µM amounted to 76%. Also, the values for the IC50 in the assay with KYSE-520 cells and against SHP2 [2] were 26.4 µM and 0.0214 µM, respectively.

Compound `Nc1nc(N2CCC3(CC2)COC[C@H]3N)cnc1Sc1ccnc2c1C(F)(F)C(=O)N2` [Example 10, (S)-4-((3-amino-5-(4-amino-2-oxa-8-azaspiro[4.5]decan-8-yl)pyrazin-2-yl)thio)-3,3-difluoro-1H-pyrrolo[2,3-b]pyridin-2(3H)-one] registered an inhibition at 0.1 µM against SHP2 [1] of 81%. This compound also yielded an IC50 against SHP2 [2] of 0.03 µM. As to `CN1C(=O)C(F)(F)c2c(Sc3ncc(N4CCC5(CC4)COC[C@H]5N[S@+]([O-])C(C)(C)C)nc3N)cccc21` [Example 11, (R)-N-((S)-8-(6-amino-5-((3,3-difluoro-1-methyl-2-oxoindolin-4-yl)thio)pyrazin-2-yl)-2-oxa-8-azaspiro[4.5]decan-4-yl)-2-methylpropane-2-sulfinamide], the IC50 in the assay on KYSE-520 cells is 12 µM. In turn, `CC(=O)N1CC(F)(F)c2c(Sc3ncc(N4CCC(C)(CNC(=O)OC(C)(C)C)CC4)nc3N)cccc21` [Example 13, tert-butyl ((1-(5-((1-acetyl-3,3-difluoroindolin-4-yl)thio)-6-aminopyrazin-2-yl)-4-methylpiperidin-4-yl)methyl)carbamate] gave an IC50 in the assay on KYSE-520 cells of 20.6 µM. On to `CN(C)C(=O)C(=O)Nc1cccc(Sc2ncc(N3CCC(C)(CN)CC3)nc2N)c1Cl` [Example 20, N^1-(3-((3-amino-5-(4-(aminomethyl)-4-methylpiperidin-1-yl)pyrazin-2-yl)thio)-2-chlorophenyl)-N^2,N^2-dimethyloxalamide], for which, at SHP2 [1], testing at 0.1 µM gave an inhibition of 57%. As to `CN(C)C(=O)C(=O)Nc1cccc(Sc2ncc(N3CCC(C)(N)CC3)nc2N)c1Cl` [Example 29, N^1-(3-((3-amino-5-(4-amino-4-methylpiperidin-1-yl)pyrazin-2-yl)thio)-2-chlorophenyl)-N^2,N^2-dimethyloxalamide], on SHP2 [1], 0.1 µM produced 47% inhibition.

Consider `Cc1ccc(C(=O)C(=O)Nc2cccc(Sc3ncc(N4CCC(C)(N)CC4)nc3N)c2Cl)cc1` [Example 31, N-(3-((3-amino-5-(4-amino-4-methylpiperidin-1-yl)pyrazin-2-yl)thio)-2-chlorophenyl)-2-oxo-2-(p-tolyl)acetamide], for which the inhibition at 0.1 µM against SHP2 [1] came to 53%. Turning to `C=CC(=O)Nc1cccc(Sc2ncc(N3CCC(C)(NC(=O)OC(C)(C)C)CC3)nc2N)c1Cl` [Example 32, tert-butyl (1-(5-((3-acrylamido-2-chlorophenyl)thio)-6-aminopyrazin-2-yl)-4-methylpiperidin-4-yl)carbamate], on SHP2 [1], at 0.1 µM the inhibition was 49%. The same measure, in the same setting: then `CN(C)C(=O)C(=O)c1ccc(C(=O)Nc2nccc(Sc3ncc(N4CCC(C)(N)CC4)nc3N)c2Cl)cc1` [Example 34, N-(4-((3-amino-5-(4-amino-4-methylpiperidin-1-yl)pyrazin-2-yl)thio)-3-chloropyridin-2-yl)-4-(2-(dimethylamino)-2-oxoacetyl)benzamide], with 37%; and `CN(C)C(=O)C(=O)c1ccc(C(=O)Nc2nccc(Sc3ncc(N4CCC(C)(CN)CC4)nc3N)c2Cl)cc1` [Example 35, N-(4-((3-amino-5-(4-(aminomethyl)-4-methylpiperidin-1-yl)pyrazin-2-yl)thio)-3-chloropyridin-2-yl)-4-(2-(dimethylamino)-2-oxoacetyl)benzamide], with 30%. The compound `Nc1nc(N2CCC3(CC2)COC[C@H]3N)cnc1Sc1ccnc2[nH]ccc12` [Example 38, (S)-8-(5-((1H-pyrrolo[2,3-b]pyridin-4-yl)thio)-6-aminopyrazin-2-yl)-2-oxa-8-azaspiro[4.5]decan-4-amine] came in with an inhibition at 0.1 µM on SHP2 [1] of 30%.

Turning to `Nc1nc(N2CCC3(CC2)COC[C@H]3N)cnc1Sc1cccc2[nH]cc(F)c12` [Example 40, (S)-8-(6-amino-5-((3-fluoro-1H-indol-4-yl)thio)pyrazin-2-yl)-2-oxa-8-azaspiro[4.5]decan-4-amine], the inhibition at 0.1 µM on SHP2 [1] amounted to 71%. On SHP2 [2], this compound displayed an IC50 of 0.0406 µM. Regarding `Nc1nc(N2CCC3(CC2)COC[C@H]3N)cnc1Sc1cccc2[nH]ccc12` [Example 42, (S)-8-(5-((1H-indol-4-yl)thio)-6-aminopyrazin-2-yl)-2-oxa-8-azaspiro[4.5]decan-4-amine], at 0.1 µM the inhibition at SHP2 [1] was 58%.

In turn, `CC(=O)n1ccc2c(Sc3ncc(N4CCC5(CC4)COC[C@H]5N)nc3N)cccc21` [Example 43, (S)-1-(4-((3-amino-5-(4-amino-2-oxa-8-azaspiro[4.5]decan-8-yl)pyrazin-2-yl)thio)-1H-indol-1-yl)ethanone] yielded an inhibition at 0.1 µM against SHP2 [1] of 43%. On SHP2 [1], `CN1C(=O)C(F)(C(F)(F)F)c2c(Sc3ncc(N4CCC5(CC4)COC[C@H]5N)nc3N)cccc21` (stereo partly drawn) [Example 58, 4-((3-amino-5-((S)-4-amino-2-oxa-8-azaspiro[4.5]decan-8-yl)pyrazin-2-yl)thio)-3-fluoro-1-methyl-3-(trifluoromethyl)indolin-2-one] registered an inhibition at 0.1 µM of 61%. On the same count and under the same terms, the figure for `CC(=O)N1CCc2c(Sc3ncc(N4CCC5(CC4)COC[C@H]5N)nc3N)cccc21` [Example 72, (S)-1-(4-((3-amino-5-(4-amino-2-oxa-8-azaspiro[4.5]decan-8-yl)pyrazin-2-yl)thio)indolin-1-yl)ethanone] is 31%.

Take `Nc1nc(N2CCC3(CC2)CC2CC2C3N)cnc1Sc1ccnc(N)c1Cl` (centres unmarked) [Example 74, 1′-(6-amino-5-((2-amino-3-chloropyridin-4-yl)thio)pyrazin-2-yl)spiro[bicyclo[3.1.0]hexane-3,4′-piperidin]-2-amine]: at SHP2 [1], the inhibition at 0.1 µM was determined as 75%. Moreover, the results for the IC50 in the assay on KYSE-520 cells and against SHP2 [2] were 3.38 µM and 0.0083 µM, respectively.

`Nc1nc(N2CCC3(CC2)C(=O)N2CCCC2C3N)cnc1Sc1ccnc(N)c1Cl` (centres unmarked) [Example 75, 1′-amino-1-(6-amino-5-((2-amino-3-chloropyridin-4-yl)thio)pyrazin-2-yl)tetrahydrospiro[piperidine-4,2′-pyrrolizin]-3′(1′H)-one] returned an inhibition at 0.1 µM against SHP2 [1] of 35%.
